The source of these data is patent US8802597B2, “Herbicidal pyrimidines” (E I du Pont de Nemours and Company, priority 2003, dated 2014).

Common to all, as to assay: Test A pre/postemergence
Holding throughout (format): in vivo

The subject of test [1] is redroot pigweed (Amaranthus retroflexus). The conditions noted are these: for pest or weed control at 125 g/ha / pest or weed control at 500 g/ha: Amaranthus retroflexus, 240 h, read-out: Plant response rating, Pigweed. The method, then: (§1) Seeds of barnyardgrass (Echinochloa crus-galli), crabgrass (Digitaria sanguinalis), giant foxtail (Setaria faberi), morningglory (Ipomoea spp.), redroot pigweed (Amaranthus retroflexus) and velvetleaf (Abutilon theophrasti) were planted into a blend of loam soil and sand and treated preemergence with a directed soil spray using test chemicals formulated in a non-phytotoxic solvent mixture which included a surfactant. At the same time these species were also treated with postemergence applications of test chemicals formulated in the same manner.
(§2) Plants ranged in height from 2 to 10 cm and were in the 1- to 2-leaf stage for the postemergence treatment. Treated plants and untreated controls were maintained in a greenhouse for approximately ten days, after which time all treated plants were compared to untreated controls and visually evaluated for injury. Plant response ratings, summarized in Table A, are based on a 0 to 100 scale where 0 is no effect and 100 is complete control. A dash (-) response means no test results.

Test [2] has as its system morningglory (Ipomoea spp.). Particulars: for pest or weed control at 125 g/ha / pest or weed control at 500 g/ha: Ipomoea, 240 h, read-out: Plant response rating, Morningglory. As for the experimental part: as §1, §2
The subject of test [3] is crabgrass (Digitaria sanguinalis). The conditions noted are these: for pest or weed control at 125 g/ha / pest or weed control at 500 g/ha: Digitaria sanguinalis, 240 h, read-out: Plant response rating, Crabgrass. The method, then:
as §1, §2

Test [4] deals with velvetleaf (Abutilon theophrasti). The conditions noted are these: for pest or weed control at 125 g/ha / pest or weed control at 500 g/ha: Abutilon theophrasti, 240 h, read-out: Plant response rating, Velvetleaf. The method, then:
as §1, §2

Test [5] relates to giant foxtail (Setaria faberi). Particulars: for pest or weed control at 125 g/ha / pest or weed control at 500 g/ha: Setaria faberi, 240 h, read-out: Plant response rating, Foxtail, Giant. As for the experimental part: as §1, §2
Test [6] deals with barnyardgrass (Echinochloa crus-galli). Particulars: for pest or weed control at 125 g/ha / pest or weed control at 500 g/ha: Echinochloa crus-galli, 240 h, read-out: Plant response rating, Barnyardgrass. As for the experimental part: as §1, §2
Setting [7] is: Postemergence, 125 g ai/ha, 0 to 100 scale (0 no effect, 100 complete control).
The mark [8] stands for this setting: Postemergence, 500 g ai/ha, 0 to 100 scale (0 no effect, 100 complete control).
The mark [9] stands for this setting: Preemergence, 125 g ai/ha, 0 to 100 scale where 0 is no effect and 100 is complete control, approximately ten days.
Setting [10] is: Preemergence, 500 g ai/ha, 0 to 100 scale where 0 is no effect and 100 is complete control, approximately ten days.
The mark [11] stands for this setting: post-emergence, Postemergence, 125 g ai/ha, 0 to 100 scale (0 no effect, 100 complete control).
The mark [12] stands for this setting: post-emergence, Postemergence, 500 g ai/ha, 0 to 100 scale (0 no effect, 100 complete control).
Setting [13] is: pre-emergence, Preemergence, 125 g ai/ha, 0 to 100 scale where 0 is no effect and 100 is complete control, approximately ten days.
The mark [14] stands for this setting: pre-emergence, Preemergence, 500 g ai/ha, 0 to 100 scale where 0 is no effect and 100 is complete control, approximately ten days.

Like-named read-outs stand apart in the source and are kept apart here.

For the compound `COC(=O)c1nc(-c2ccc([S+](C)[O-])cc2)nc(N)c1Cl` (stereo not drawn) [Compound 123], the “Plant response rating, Pigweed” value in test [1] (setting [7]), in test [1] (setting [8]), in test [1] (setting [9]) and in test [1] (setting [10]) was 0 each time. Also, the “Plant response rating, Morningglory” value is 0 in test [2] (setting [7]), 20 in test [2] (setting [8]), 0 in test [2] (setting [9]) and 0 in test [2] (setting [10]). The “Plant response rating, Crabgrass” value in test [3] (setting [7]), in test [3] (setting [8]), in test [3] (setting [9]) and in test [3] (setting [10]) was 0 throughout. The “Plant response rating, Velvetleaf” value in test [4] (setting [7]), in test [4] (setting [8]), in test [4] (setting [9]) and in test [4] (setting [10]) was 0 throughout. The “Plant response rating, Foxtail, Giant” value in test [5] (setting [7]) was found to be 0; in test [5] (setting [8]) it was 10; in test [5] (setting [9]), 0; in test [5] (setting [10]) it was 0. Moreover, the “Plant response rating, Barnyardgrass” value in test [6] (setting [7]) is reported as 0; in test [6] (setting [8]), 10; in test [6] (setting [9]), 0; in test [6] (setting [10]), 0.

Take `CNC(=O)c1nc(C2CC2)nc(N)c1Cl` [Compound 81]: the pest or weed control at 125 g/ha in test [1] (setting [11]) stood at 55%; in test [1] (setting [13]) it was 60%; in test [2] (setting [11]), 50%; in test [2] (setting [13]) it was 0%; in test [3] (setting [11]), 0%; in test [3] (setting [13]), 0%. Moreover, the pest or weed control at 125 g/ha in test [4] (setting [11]) came out at 50%; in test [4] (setting [13]), 20%; in test [5] (setting [11]), 0%; in test [5] (setting [13]) it was 0%; in test [6] (setting [11]) it was 0%; in test [6] (setting [13]), 10%. Moreover, the pest or weed control at 500 g/ha in test [1] (setting [12]) came out at 75%; in test [1] (setting [14]), 70%; in test [2] (setting [12]), 80%; in test [2] (setting [14]) it was 50%; in test [3] (setting [12]) it was 10%; in test [3] (setting [14]), 10%. For the same compound, the pest or weed control at 500 g/ha in test [4] (setting [12]) was determined as 75%; in test [4] (setting [14]), 40%; in test [5] (setting [12]), 30%; in test [5] (setting [14]) it was 10%; in test [6] (setting [12]) it was 30%; in test [6] (setting [14]) it was 20%.

With `Nc1nc(C2CC2)nc(C(=O)OCCCOC(=O)c2nc(C3CC3)nc(N)c2Cl)c1Cl` [Compound 142], the “Plant response rating, Pigweed” value in test [1] (setting [7]) is on record as 85; in test [1] (setting [8]), 90; in test [1] (setting [9]), 70; in test [1] (setting [10]), 90. Further, the “Plant response rating, Morningglory” value in test [2] (setting [7]) was determined as 90; in test [2] (setting [8]), 90; in test [2] (setting [9]), 85; in test [2] (setting [10]), 95. Also, the “Plant response rating, Crabgrass” value is listed as 15 in test [3] (setting [7]), 25 in test [3] (setting [8]), 45 in test [3] (setting [9]) and 85 in test [3] (setting [10]). Also, the “Plant response rating, Velvetleaf” value amounted to 80 in test [4] (setting [7]), 90 in test [4] (setting [8]), 85 in test [4] (setting [9]) and 85 in test [4] (setting [10]). Besides, the “Plant response rating, Foxtail, Giant” value in test [5] (setting [7]) turned out to be 30; in test [5] (setting [8]), 45; in test [5] (setting [9]), 25; in test [5] (setting [10]) it was 65. Moreover, the “Plant response rating, Barnyardgrass” value turned out to be 45 in test [6] (setting [7]), 75 in test [6] (setting [8]), 50 in test [6] (setting [9]) and 75 in test [6] (setting [10]).

Consider `CC(C)=NOC(=O)c1nc(C2CC2)nc(N)c1Cl` [Compound 146], for which the “Plant response rating, Pigweed” value was 90 in test [1] (setting [7]), 95 in test [1] (setting [8]), 75 in test [1] (setting [9]) and 95 in test [1] (setting [10]). In addition, the “Plant response rating, Morningglory” value is listed as 85 in test [2] (setting [7]), 100 in test [2] (setting [8]), 95 in test [2] (setting [9]) and 100 in test [2] (setting [10]). Further, the “Plant response rating, Crabgrass” value in test [3] (setting [7]) is 20; in test [3] (setting [8]) it was 80; in test [3] (setting [9]) it was 35; in test [3] (setting [10]), 75. Further, the “Plant response rating, Velvetleaf” value in test [4] (setting [7]) is 85; in test [4] (setting [8]), 100; in test [4] (setting [9]) it was 85; in test [4] (setting [10]), 100. In addition, the “Plant response rating, Foxtail, Giant” value in test [5] (setting [7]) amounted to 80; in test [5] (setting [8]), 85; in test [5] (setting [9]) it was 60; in test [5] (setting [10]) it was 90. Moreover, the “Plant response rating, Barnyardgrass” value in test [6] (setting [7]) is reported as 70; in test [6] (setting [8]), 90; in test [6] (setting [9]), 65; in test [6] (setting [10]) it was 90.
